Values of other authors, collected in patent publication US4803081A, “New pharmaceutical preparations with extended release” (Aktiebolaget Hassle, priority 1986, dated 1989).
≈ marks a conversion by molar mass, not a printed value. Where two headings read alike, the source gives them in different places.

Conditions: for solubility (in words): very low = less than 0.1 per cent by weight in water

CCOC(=O)C1=C(C)NC(C)=C(C(=O)OC)C1c1cccc(Cl)c1Cl (centres unmarked) [felodipine, 4-(2,3-dichlorophenyl)-1,4-dihydro-2,6-dimethyl-3,5-pyridinedicarboxylic acid ethyl methyl ester]
solubility (in words): very low solubility | solubility (in words) (listed as Felodipine): practically insoluble | solubility in water (water): 0.5 µg/mL (≈ 1.3 µM)

COC1=CC(=O)C[C@@H](C)[C@]12Oc1c(Cl)c(OC)cc(OC)c1C2=O [griseofulvin]
solubility (in words): very low solubility

O=C1NC(=O)C(c2ccccc2)(c2ccccc2)N1 [phenytoin]
solubility (in words): very low solubility
